Experimental data from ChEMBL document CHEMBL6109086, “Discovery and biological evaluation of hederagenin derivatives as non-substrate inhibitors of P-glycoprotein-mediated multidrug resistance” (Eur J Med Chem, 2025).
The source made the active and inactive calls. The calls are words filed in the database; no cut-off is given here.

How the values were obtained:
[1] = Sensitization of paclitaxel-induced cytotoxicity against human KBV cells assessed as fold change in paclitaxel IC50 at 2.5 uM incubated for 72 hrs by MTT assay relative to paclitaxel alone; format: functional
[2] = Sensitization of paclitaxel-induced cytotoxicity against human KBV cells assessed as fold change in paclitaxel IC50 at 5 uM incubated for 72 hrs by MTT assay relative to paclitaxel alone; format: functional
[3] = Sensitization of paclitaxel-induced cytotoxicity against human KBV cells assessed as fold change in paclitaxel IC50 at 10 uM incubated for 72 hrs by MTT assay relative to paclitaxel alone; format: functional
[4] = Sensitization of vincristine -induced cytotoxicity against human KBV cells assessed as fold change in vincristine IC50 at 2.5 uM incubated for 72 hrs by MTT assay relative to vincristine alone; format: functional
[5] = Sensitization of vincristine -induced cytotoxicity against human KBV cells assessed as fold change in vincristine IC50 at 5 uM incubated for 72 hrs by MTT assay relative to vincristine alone; format: functional
[6] = Sensitization of vincristine -induced cytotoxicity against human KBV cells assessed as fold change in vincristine IC50 at 10 uM incubated for 72 hrs by MTT assay relative to vincristine alone; format: functional
[7] = Reversal of multi-drug resistance in human KBV cells assessed as paclitaxel induced cytotoxicity by measuring cell survival at 10 uM measured after 72 hrs by MTT assay relative to control; format: functional
[8] = Cytotoxicity against human KBV cells assessed as paclitaxel induced cytotoxicity by measuring cell survival at 10 uM measured after 72 hrs by MTT assay relative to control; format: functional
[9] = biological target: ATP-dependent translocase ABCB1 (Homo sapiens, UniProt P08183); assay: Induction of thermal stabilization of p-glycoprotein in human KBV cells at 50 uM pre-treated with cells for 24 hrs and measured after 2 hrs by CESTA; format: cell-based; details: 26 h
[10] = Drug accumulation in human KBV cells expressing p-glycoprotein at 10 uM measured after 4 hrs by UPLC-MS analysis; format: ADME, cell-based
[11] = system: KBv200; assay: Effect on p-glycoprotein expression level in human KBv200 cells at 2.5 to 10 uM measured after 4 hrs by Western blot analysis; format: functional, cell-based; details: dose 2.5-10 µM
[12] = system: KBV; assay: Induction of Rh123 accumulation in human KBV cells at 10 uM incubated for 150 mins by flow cytometry analysis; format: functional, cell-based
[13] = system: KBV; assay: Induction of cell cycle arrest in human KBV cells assessed as accumulation of cells at G2/M phase at 10 uM incubated for 24 hrs by PI staining based flow cytometry analysis; format: functional
[14] = system: KBV; assay: Induction of cell cycle arrest in human KBV cells assessed as accumulation of cells at G2/M phase at 10 uM in presence of paclitaxel incubated for 24 hrs by PI staining based flow cytometry analysis; format: functional
[15] = system: KBV; assay: Induction of apoptosis in human KBV cells in presence of paclitaxel incubated for 24 hrs by PI staining based flow cytometry analysis; format: functional, cell-based; details: dose 2.5-10 µM
[16] = system: KBV; assay: Anti-tumor activity against human KBV cells xenografted in male BALB/c nude mouse assessed as reduction in tumor volume at 10 mg/kg administered once daily for 18 days; format: functional, organism-based; details: time 18.0 day
[17] = Aqueous solubility of the compound in deionized water measured after 24 hrs by UV-vis spectrophotometric analysis; format: physicochemical; details: buffer
[18] = Drug accumulation in human KB cells […] at 10 uM measured after 4 hrs by UPLC-MS analysis; format: ADME, cell-based
[19] = system: KBV; assay: Induction of cell cycle arrest in human KBV cells assessed as accumulation of cells at G2/M phase in presence of paclitaxel incubated for 24 hrs by PI staining based flow cytometry analysis; format: functional; details: dose 2.5-10 µM
[20] = Cytotoxicity against human KBV cells incubated for 72 hrs by MTT assay; format: functional, cell-based
[21] = system: KBV; assay: Anti-tumor activity against human KBV cells xenografted in male BALB/c nude mouse assessed as reduction in tumor volume at 30 mg/kg administered every days for 18 days; format: functional, organism-based; details: time 18.0 day

ATP-dependent translocase ABCB1, sequence (P08183 whole entry): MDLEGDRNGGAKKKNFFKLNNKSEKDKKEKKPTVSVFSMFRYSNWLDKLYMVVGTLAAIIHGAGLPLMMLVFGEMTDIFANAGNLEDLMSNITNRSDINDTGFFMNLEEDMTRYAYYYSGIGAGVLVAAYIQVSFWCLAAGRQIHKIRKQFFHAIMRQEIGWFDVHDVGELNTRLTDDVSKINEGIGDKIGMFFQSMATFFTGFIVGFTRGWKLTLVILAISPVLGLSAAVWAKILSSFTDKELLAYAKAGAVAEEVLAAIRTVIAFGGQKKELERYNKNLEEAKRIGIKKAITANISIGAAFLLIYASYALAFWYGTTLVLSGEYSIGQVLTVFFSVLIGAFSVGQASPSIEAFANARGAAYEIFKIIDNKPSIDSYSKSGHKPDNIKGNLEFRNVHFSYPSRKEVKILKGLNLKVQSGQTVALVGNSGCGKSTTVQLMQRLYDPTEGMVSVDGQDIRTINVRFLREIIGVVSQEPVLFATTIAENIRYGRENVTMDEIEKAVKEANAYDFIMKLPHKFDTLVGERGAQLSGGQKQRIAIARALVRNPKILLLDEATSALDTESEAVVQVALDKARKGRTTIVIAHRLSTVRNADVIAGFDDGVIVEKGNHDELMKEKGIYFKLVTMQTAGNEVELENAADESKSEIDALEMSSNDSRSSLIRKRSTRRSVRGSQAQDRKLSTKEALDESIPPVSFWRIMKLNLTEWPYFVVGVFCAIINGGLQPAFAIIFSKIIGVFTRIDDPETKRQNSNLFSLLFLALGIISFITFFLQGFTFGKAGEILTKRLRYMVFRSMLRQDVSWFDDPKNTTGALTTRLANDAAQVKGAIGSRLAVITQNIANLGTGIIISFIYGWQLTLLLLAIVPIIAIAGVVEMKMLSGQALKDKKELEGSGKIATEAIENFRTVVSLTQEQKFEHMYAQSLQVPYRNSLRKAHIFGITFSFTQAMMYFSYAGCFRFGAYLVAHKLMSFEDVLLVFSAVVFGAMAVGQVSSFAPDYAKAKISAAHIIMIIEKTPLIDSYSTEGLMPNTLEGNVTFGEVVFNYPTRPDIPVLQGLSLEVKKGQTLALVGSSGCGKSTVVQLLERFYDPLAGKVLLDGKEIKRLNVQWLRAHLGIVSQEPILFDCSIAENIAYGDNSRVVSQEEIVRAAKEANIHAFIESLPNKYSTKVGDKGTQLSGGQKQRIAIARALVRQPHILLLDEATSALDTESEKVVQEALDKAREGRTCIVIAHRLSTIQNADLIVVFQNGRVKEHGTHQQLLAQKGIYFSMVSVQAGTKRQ

Structure (SMILES) | fold change (FC) [1] | fold change (FC) [2] | fold change (FC) [3] | fold change (FC) [4] | fold change (FC) [5] | fold change (FC) [6] | Activity [7] [%] | Activity [8] [%] | solubility [17] | IC50 [20] [nM] | also measured
O[C@@H](COc1cccc2ncccc12)CN1CCN([C@@H]2c3ccccc3[C@@H]3[C@H](c4ccccc42)C3(F)F)CC1 [ZOSUQUIDAR] | 45.38 | 133.98 | 449.19 | 9.01 | 33.85 | 721.86 |  |  |  |  | 
COc1cc2c(cc1OC)CN(CCc1ccc(NC(=O)c3cc(OC)c(OC)cc3NC(=O)c3cnc4ccccc4c3)cc1)CC2 | 391.47 | 824.4 | 1523.35 | 16.78 | 30.99 | 744.78 |  |  |  |  | 
CC1(C)CC[C@]2(C(=O)NCCCC(=O)OCCOCCOCCOCCOCCOCCO)CC[C@]3(C)C(=CC[C@@H]4[C@@]5(C)Cc6nccnc6[C@@](C)(CO)[C@@H]5CC[C@]43C)[C@@H]2C1 | 2.72 | 6.12 | 103.51 | 2.43 | 6.09 | 14.41 | 17.01 | 86 | soluble |  | Activity [9]: Active; Drug uptake [10]: Active; Activity [11]: inactive; Activity [12]: Active; Activity [13]: inactive; Activity [14]: Active; Activity [15]: Dose-dependent-effect; Activity [16]: inactive; Drug uptake [18]: Active; Activity [19]: Dose-dependent-effect
CC1(C)CC[C@]2(C(=O)OCc3ccccc3)CC[C@]3(C)C(=CC[C@@H]4[C@@]5(C)Cc6nccnc6[C@@](C)(CO)[C@@H]5CC[C@]43C)[C@@H]2C1 |  |  |  |  |  |  | 18.17 |  | soluble |  | 
CC[C@]1(O)C[C@H]2CN(CCc3c([nH]c4ccccc34)[C@@](C(=O)OC)(c3cc4c(cc3OC)N(C=O)[C@H]3[C@@](O)(C(=O)OC)[C@H](OC(C)=O)[C@]5(CC)C=CCN6CC[C@]43[C@@H]65)C2)C1 [VINCRISTINE] |  |  |  |  |  |  |  |  |  | 469 | 
CC(=O)O[C@H]1C(=O)[C@@]2(C)[C@H]([C@H](OC(=O)c3ccccc3)[C@]3(O)C[C@H](OC(=O)[C@H](O)[C@@H](NC(=O)c4ccccc4)c4ccccc4)C(C)=C1C3(C)C)[C@]1(OC(C)=O)CO[C@@H]1C[C@@H]2O [PACLITAXEL] |  |  |  |  |  |  |  | 106 |  | 701 | Activity [21]: inactive
